Test results from patent publication US10058493B2, “Oral care compositions and methods of use” (COLGATE-PALMOLIVE COMPANY, priority 2016, dated 2018).
“Also recorded” adds a separate entry of the source.

Assays:
Design in all cases: species or system human
[1] = Buffering effect on pH of saliva following acid challenge with cola beverage; settings: cola titration; 0.0625% reagent; FIG. 2
Procedure: (§1) Aqueous solutions containing arginine and zinc salts were created to carry out the following Examples. Solution 1 was prepared by mixing L-arginine (0.375 g), zinc oxide (ZnO, 0.25 g), and zinc citrate trihydrate (0.125 g) in deionized water (24.25 mL). These values correspond to the following percentages by mass: 1.5% L-arginine, 1% ZnO, 0.5% zinc citrate trihydrate. Additional control solutions were prepared of each regent alone at equal concentrations. Each solution was diluted to 25 g total mass with deionized water.
Paraffin-stimulated whole saliva was collected from a healthy subject. Each saliva sample was mixed by an appropriate means. Immediately prior to analysis, the ex-vivo saliva samples were pretreated with aliquots of Solution 1 to give a range of active dilutions. A control sample containing untreated whole saliva was also prepared for comparison. The dilutions were prepared as in Table 2.
The samples as described in Table 2 were tested for buffering effect on the pH of saliva following acid challenge with a cola beverage. Initial pH values of the treated samples were obtained. A cola beverage (1 mL) was added to the saliva sample. The resultant was mixed for 30 seconds at room temperature at the conclusion of which the pH of the sample was recorded. This process was repeated step-wise up to a total of 40 mL of cola. […]

[2] = Buffering effect on pH of saliva following sucrose challenge (bacterial acid production); settings: for effect on pH drop after sucrose challenge versus untreated control: Donors A-C, range of concentrations, 2, 4, 6 hours and overnight
Procedure: as §1
Paraffin-stimulated whole saliva was collected from three healthy subjects (Donors A-C). Each saliva sample was mixed by ordinary means in the art. Prior to analysis, the ex-vivo saliva samples were pretreated with aliquots of the simple solutions to give a range of active dilutions (i.e., total Zn^2+ concentration of about 0-3000 ppm) including an untreated control in order to test for buffering effect against sucrose challenge as a function of zinc concentration. An initial pH of the treated sample was obtained. A sucrose solution (5%, 1 mL) was added to each saliva sample. The resultant was mixed for and then incubated at 37° C. and the pH was monitored at 2 hours, 4 hours, 6 hours, and overnight. Zinc concentration in each sample was determined by ICP-AES.
Further experiments were conducted to ensure that zinc oxide/zinc citrate/arginine, not its constituent parts, was needed to achieve the buffering capacity improvement described. The solutions tested were prepared according to the specifications as laid out in Table 3 above.

[3] = Buffering effect on pH of saliva following acid challenge with dilute hydrochloric acid; settings: 0.01 M HCl 6 mL; for acid buffering effect / pH of treated saliva after acid exposure: 20 min; for acid buffering effect: room temperature, Donors 1-3; for pH of treated saliva after acid exposure: all donors
Procedure: as §1
Paraffin-stimulated whole saliva was collected from three healthy subjects (Donors 1-3). Each saliva sample was mixed by ordinary means in the art. Immediately prior to analysis, the ex-vivo saliva samples were pretreated with aliquots of the simple solutions to give a range of active dilutions (i.e., total Zn^2+ concentration of about 0-1500 ppm) including an untreated control. The concentrations of actives (i.e., zinc oxide/zinc citrate/arginine, L-arginine, zinc oxide, zinc citrate) were varied between 0.0% to 50% across all samples, as shown in FIGS. 5-10.
An initial pH of the treated sample was obtained. Dilute hydrochloric acid (HCl, 0.01 M, 6 mL) was added to each saliva sample. The resultant was mixed for 20 minutes at room temperature. The pH of the sample was recorded at the conclusion of the reaction time. Zinc concentration in each sample was determined by ICP-AES.

[4] = Buffering effect on pH of saliva following acid challenge with orange juice; settings: 0.0625% reagent in saliva (Table 3); FIG. 4
Procedure: as §1
Four solutions containing whole saliva and zinc oxide/zinc citrate/arginine at varying proportions were prepared in accordance with the methods laid out in Example 1 above. The solutions contained the same concentrations as Samples 1-4 as defined in Table 2. The samples were tested for buffering effect on the pH of saliva following acid challenge with orange juice. Initial pH values of the treated samples were obtained. Orange juice (0.1 mL) was added to the saliva sample. The resultant was mixed for 30 seconds at room temperature at the conclusion of which the pH of the sample was recorded. This process was repeated step-wise up to a total of 3.0 mL of orange juice. After this point, orange juice was added to the samples in an amount of 0.5 mL up to 5.0 mL. […]

Compound	shift of isoelectric point in comparison to the untreated sample [1]	buffering effect of the 100 ppm arginine solution ([2]; donor C, FIG. 14)	buffering effect of the 100 ppm arginine solution ([2]; donors A or B, FIGS. 12-13)	amount of solution able to match the buffering effect of 200 μL or less zinc oxide/zinc citrate/arginine ([3]; FIGS. 5-7) [µL]	effect on pH drop after sucrose challenge versus untreated control [2]	ability to buffer the acidic orange juice compared with controls [4]	acid buffering effect ([3]; FIGS. 5-7)	pH of treated saliva after acid exposure [3]
N=C(N)NCCC[C@H](N)C(=O)O [arginine, L-arginine]	acid shifted the isoelectric point in comparison to the untreated sample providing no acid neutralization benefit	modest buffering was observed	not seen	> 500	–	–	–	–
O.O.O.O=C([O-])CC(O)(CC(=O)[O-])C(=O)[O-].O=C([O-])CC(O)(CC(=O)[O-])C(=O)[O-].[Zn+2].[Zn+2].[Zn+2] [zinc citrate, zinc citrate trihydrate]	acid shifted the isoelectric point in comparison to the untreated sample providing no acid neutralization benefit	–	–	–	Buffering effects were observed over the untreated control of each of the donors	no benefit in comparison the untreated control	little to no buffering effect at all	below 4.0
[O]=[Zn] [zinc oxide]	–	–	–	–	Buffering effects were clearly observed over the untreated control of each of the donors	–	some pH stabilization; also recorded: not showing a dose response above 0.1% treatment	lower in saliva treated with ZnO than zinc oxide/zinc citrate/arginine treated saliva
